Results as given in US20220009914A1, “Analogs of Nitrofuran Antibiotics to Combat Resistance” (The Trustees of Indiana University, priority 2020, published 2022).
Like-named read-outs stand apart in the source and are kept apart here.

How the values were obtained:
[1] = test system: Enterococcus faecium strain NCTC 7171 (ATCC #19434); assay: bacterial proliferation assay, E. faecium; format: cell-based; details: read-out: Bacterial Proliferation EC50 E. faecium
Procedure: (§1) All compounds were evaluated for inhibiting the proliferation of E. coli and each of the ESKAPE bacteria. Results presented represent the averages of EC50 values obtained from at least four replicates. Evaluating compounds for inhibition of bacterial cell proliferation.
(§2) Growth Media: E. coli were grown with LB medium and all ESKAPE bacteria were grown in Brain Heart Infusion (BHI) medium (Becton, Dickinson and Company), with all liquid cultures supplemented with 25 mg/L Ca^2+ and 12.5 mg/L Mg^2+ to mimic physiological free concentrations of these cations. A 10 mg/mL Ca^2+ stock solution was prepared by dissolving 1.84 g of CaCl2.2H2O in 50 mL of deionized water, and a 10 mg/mL Mg^2+ stock solution was prepared by dissolving 4.18 g of MgCl2.6H2O in 50 mL deionized water—filter sterilized using 0.2 μm cellulose-acetate filters. 2.5 mL of the sterile 10 mg/mL Ca^2+ stock and 1.25 mL of the sterile 10 mg/mL Mg^2+ stock solutions were added per 1 L of autoclaved LB or BHI media to obtain 25 mg/L Ca^2+ and 12.5 mg/L Mg^2+ ions, respectively.
(§3) General Assay Protocol: Stock bacterial cultures were streaked onto LB or BHI agar plates and grown overnight at 37° C. Fresh aliquots of cation supplemented media were inoculated with single bacterial colonies and the cultures were grown overnight at 37° C. with shaking (240 rpm). The following morning, cultures were diluted 10-fold into fresh media and grown at 37° C. until bacteria had reached mid-log phase growth (OD600˜0.4-0.6). The cultures were then diluted into fresh media to achieve final OD600 readings of 0.017. Aliquots of these diluted cultures (30 μL) were added to clear, flat-bottom 384-well polystyrene plates that were previously stamped with 0.5 μL of test compounds in 20 μL of media (yielding initial OD600=0.01 bacterial cultures). All compounds were tested in dose-response with concentration ranges during the proliferation assays from 100 μM to 46 nM (3-fold dilution series). A second set of baseline control plates were prepared analogously, but without any bacteria added, to correct for possible compound absorbance and/or precipitation. […] Plates were then read at 600 nm using a Molecular Devices SpectraMax Plus384 microplate reader. […] Results presented represent the averages of EC50 values obtained from at least four replicates.
(§4) Evaluating analogs for inhibiting the growth of E. coli and the ESKAPE bacteria. Analogs were initially tested for antibacterial efficacy against representative strains of antibiotic-sensitive E. coli and the ESKAPE bacteria. To determine compound efficacy, bacterial proliferation assays were carried out in liquid media culture supplemented with physiological concentrations of free calcium and magnesium cations. For these assays, bacterial cultures (OD600=0.01) were exposed to test compounds in 8-point, 3-fold dilution series (100 μM to 46 nM concentration range), in 384-well plates. After addition of compounds to cultures, the plates were sealed with Breathe-Easy gas permeable membranes and allowed to grow to mid-log phase (OD600˜0.4-0.6), whereupon final OD600 readings were taken to assess for bacterial growth and inhibition.

[2] = test system: Enterobacter cloacae strain CDC 442-68 (ATCC #13047); assay: bacterial proliferation assay, E. cloacae; format: cell-based; details: ATCC13047, read-out: Bacterial Proliferation EC50 E. cloacae
Procedure: as §1, §2, §3, §4

E. coli GroEL/ES = biological target: T1, E. coli GroEL/ES (Escherichia coli, UniProt P0A6F5); assay: GroEL/ES-mediated dMDH refolding assay in the presence of E. coli NfsB nitroreductase; format: biochemical; details: for GroEL/ES inhibition in words: in the presence of E. coli NfsB
T1 construct: made in house; host or cells: GroEL in NEB 5-alpha E. coli; GroES in E. coli BL21 (DE3)
T1 sequence (P0A6F5 2-548): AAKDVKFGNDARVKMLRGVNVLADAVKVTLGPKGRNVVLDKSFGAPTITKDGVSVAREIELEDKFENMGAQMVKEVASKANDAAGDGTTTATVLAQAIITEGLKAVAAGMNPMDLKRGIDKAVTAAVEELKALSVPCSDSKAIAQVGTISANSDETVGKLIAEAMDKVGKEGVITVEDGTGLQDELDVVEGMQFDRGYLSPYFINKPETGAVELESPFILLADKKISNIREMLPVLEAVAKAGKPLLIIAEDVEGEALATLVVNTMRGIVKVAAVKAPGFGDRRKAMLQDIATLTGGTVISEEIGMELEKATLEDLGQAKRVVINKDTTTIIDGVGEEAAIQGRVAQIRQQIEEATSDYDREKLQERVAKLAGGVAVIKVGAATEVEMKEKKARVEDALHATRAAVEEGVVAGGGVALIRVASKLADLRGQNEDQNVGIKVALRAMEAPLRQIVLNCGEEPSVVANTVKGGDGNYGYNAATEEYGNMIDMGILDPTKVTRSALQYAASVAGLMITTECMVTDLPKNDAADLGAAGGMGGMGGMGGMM
Procedure: Evaluating compounds for inhibition in the GroEL/ES-mediated dMDH refolding assay and native MDH activity counter-screen in the presence of E. coli NfsB nitroreductase. These assays were performed nearly identically to those mentioned above, but with a couple distinct modifications. For both assays, 10 μg/mL of the E. coli NfsB nitroreductase enzyme (Sigma product #N9284) was added to the initial GroEL/ES-dMDH solution. For the GroEL/ES-dMDH refolding assay, after stamping with compounds, 10 μL of a 2.4 mM NADH solution was added, followed by a 10 minute incubation period at 37° C. to bioactivate the nitrofuran analogs. The remainder of the assay was conducted as in our standard protocol where no NfsB nitroreductase was present. […] For the native MDH activity counter-screen in the presence of E. coli NfsB nitroreductase, the assay was performed as described above for the GroEL/ES-dMDH refolding assay with NfsB; however, compound addition to the assay plates was conducted after the EDTA quench step, followed by a 10 minute incubation period at 37° C. to bioactivate the nitrofuran analogs. […] Results presented represent the averages of IC50 values obtained from at least four replicates in each assay.
Evaluating analogs for inhibiting GroEL/ES-mediated substrate refolding functions in the presence of the E. coli NfsB type-1 nitroreductase. […] However, our standard GroEL/ES-mediated refolding assays and native substrate reporter counter-screens were conducted without nitroreductases present.

[3] = test system: Staphylococcus aureus strain Seattle 1945 (ATCC #25923); assay: bacterial proliferation assay, S. aureus; format: cell-based
Procedure: as §1, §2, §3, §4

[4] = test system: Pseudomonas aeruginosa strain NCTC 10332 (ATCC #10145); assay: bacterial proliferation assay, P. aeruginosa; format: cell-based; details: read-out: Bacterial Proliferation EC50 P. aeruginosa
Procedure: as §1, §2, §3, §4

[5] = Staphylococcus aureus, ATCC25923; read-out: Bacterial Proliferation EC50 S. aureus
[6] = with E. coli NfsB nitroreductase, read-out: NfsB-GroEL/ES-dMDH Refolding IC50

Work on `COc1ccc(C(=O)N/N=C/c2ccccc2)cc1` [Compound 37, N′-benzylidene-4-methoxybenzohydrazide] yielded an EC50 [1] greater than 100 µM, an EC50 [2] greater than 100 µM and an IC50 (E. coli GroEL/ES) greater than 83 µM. The EC50 [3, 5] was greater than 100 µM and the EC50 [4] was greater than 100 µM.
With `CCOc1ccc(S(=O)(=O)Nc2ccc(C(=O)N/N=C/c3ccc(O)c4ncccc34)cc2)cc1` [Compound 15, 4-ethoxy-N-(4-(2-((8-hydroxyquinolin-5-yl)methylene)hydrazine-1-carbonyl)phenyl)benzenesulfonamide] the EC50 [1] was greater than 100 µM, the EC50 [2] was greater than 100 µM and the IC50 (E. coli GroEL/ES) was 3.1 µM. For the same compound, the EC50 [3, 5] was greater than 100 µM and the EC50 [4] was greater than 100 µM.
Compound `COc1ccc(C(=O)NN)cc1` [Compound 42, reference compound] has an EC50 [1] greater than 100 µM, an EC50 [2] greater than 100 µM and an IC50 (E. coli GroEL/ES) greater than 83 µM. The EC50 [3, 5] was greater than 100 µM and the EC50 [4] was greater than 100 µM.
Work on `COc1ccc(C(=O)N/N=C/c2ccc(O)c3ccccc23)cc1` [Compound 29, N′-((4-hydroxynaphthalen-1-yl)methylene)-4-methoxybenzohydrazide] yielded an EC50 [1] greater than 100 µM, an EC50 [2] greater than 100 µM and an IC50 (E. coli GroEL/ES) greater than 83 µM. For the same compound, the EC50 [3, 5] was greater than 100 µM and the EC50 [4] was greater than 100 µM.
`O=C1CN(/N=C/c2ccc([N+](=O)[O-])o2)C(=O)N1` [Nitrofurantoin, reference compound] was tested, and the EC50 [1] was 38 µM, the EC50 [2] was 36 µM and the “GroEL/ES inhibition in words” value (E. coli GroEL/ES) was “weak to moderate GroEL/ES inhibitors”. For the same compound, the IC50 (E. coli GroEL/ES; [6]) was 84 µM, the EC50 [3, 5] was 27 µM and the EC50 [4] was greater than 100 µM.
Compound `COc1ccc(C(=O)N/N=C/c2ccco2)cc1` [Compound 39, N′-(furan-2-ylmethylene)-4-methoxybenzohydrazide] has an EC50 [1] greater than 100 µM, an EC50 [2] greater than 100 µM and an IC50 (E. coli GroEL/ES) greater than 83 µM. It also gave an EC50 [3, 5] greater than 100 µM and an EC50 [4] greater than 100 µM.
With `O=C1CN(/N=C/c2ccc(O)c3ncccc23)C(=O)N1` [Compound 2, 1-(((8-hydroxyquinolin-5-yl)methylene)amino)imidazolidine-2,4-dione] the EC50 [1] was greater than 100 µM, the EC50 [2] was greater than 100 µM and the IC50 (E. coli GroEL/ES) was greater than 83 µM. It also gave an EC50 [3, 5] of 37 µM and an EC50 [4] greater than 100 µM.
Work on `O=C(N/N=C/c1ccc([N+](=O)[O-])o1)c1cccc(Oc2ccccc2)c1` [Compound 24, N′-((5-nitrofuran-2-yl)methylene)-3-phenoxybenzohydrazide] yielded an EC50 [1] of 11 µM, an EC50 [2] greater than 100 µM and an IC50 (E. coli GroEL/ES) of 2.8 µM. The EC50 [3, 5] was 3.5 µM and the EC50 [4] was greater than 100 µM.
Work on `O=C(N/N=C/c1ccc([N+](=O)[O-])o1)c1ccccc1` [Compound 18, N′-((5-nitrofuran-2-yl)methylene)benzohydrazide] yielded an EC50 [1] of 31 µM, an EC50 [2] greater than 100 µM and an IC50 (E. coli GroEL/ES; [6]) of 12 µM. It also gave an EC50 [3, 5] of 10 µM and an EC50 [4] greater than 100 µM.
`O=C(N/N=C/c1ccc(O)c2ncccc12)c1cccc(Oc2ccccc2)c1` [Compound 11, N′-((8-hydroxyquinolin-5-yl)methylene)-3-phenoxybenzohydrazide] showed an EC50 [1] greater than 100 µM, an EC50 [2] greater than 100 µM and an IC50 (E. coli GroEL/ES) of 21 µM. The EC50 [3, 5] was greater than 100 µM and the EC50 [4] was greater than 100 µM.
`O=C(N/N=C/c1ccc(O)c2ccccc12)c1ccccc1` [Compound 30, N′-((4-hydroxynaphthalen-1-yl)methylene)benzohydrazide] showed an EC50 [1] greater than 100 µM, an EC50 [2] greater than 100 µM and an IC50 (E. coli GroEL/ES) greater than 83 µM. For the same compound, the EC50 [3, 5] was 88 µM and the EC50 [4] was greater than 100 µM.
`O=C(N/N=C/c1ccc(O)c2ncccc12)c1ccc(Cl)s1` [Compound 4, 5-chloro-N′-((8-hydroxyquinolin-5-yl)methylene)thiophene-2-carbohydrazide] was tested, and the EC50 [1] was 70 µM, the EC50 [2] was greater than 100 µM and the IC50 (E. coli GroEL/ES) was 4 µM. For the same compound, the EC50 [3, 5] was 84 µM and the EC50 [4] was greater than 100 µM.
Work on `O=C(N/N=C/c1ccc(O)c2ncccc12)c1ccc(NS(=O)(=O)c2ccc(Br)cc2)cc1` [Compound 14, 4-bromo-N-(4-(2-((8-hydroxyquinolin-5-yl)methylene)hydrazine-1-carbonyl)phenyl)benzenesulfonamide] yielded an EC50 [1] greater than 100 µM, an EC50 [2] greater than 100 µM and an IC50 (E. coli GroEL/ES) of 3.6 µM. The EC50 ([3]; Staphylococcus aureus, ATCC25923, read-out: Bacterial Proliferation EC50 S. aureus) was greater than 100 µM and the EC50 [4] was greater than 100 µM.
With `O=C(N/N=C/c1ccccc1)c1ccccc1` [Compound 38, N′-benzylidenebenzohydrazide] the EC50 [1] was greater than 100 µM, the EC50 [2] was greater than 100 µM and the IC50 (E. coli GroEL/ES) was greater than 83 µM. For the same compound, the EC50 [3, 5] was greater than 100 µM and the EC50 [4] was greater than 100 µM.
`O=C(N/N=C/c1cccc2ncccc12)c1ccccc1` [Compound 32, N′-(quinolin-5-ylmethylene)benzohydrazide] was tested, and the EC50 [1] was greater than 100 µM, the EC50 [2] was greater than 100 µM and the IC50 (E. coli GroEL/ES) was greater than 83 µM. The EC50 [3, 5] was greater than 100 µM and the EC50 [4] was greater than 100 µM.
In the case of `COc1ccc(C(=O)N/N=C/c2ccc(O)cc2)cc1` [Compound 35, N′-(4-hydroxybenzylidene)-4-methoxybenzohydrazide], the EC50 [1] is reported as greater than 100 µM, the EC50 [2] is reported as greater than 100 µM and the IC50 (E. coli GroEL/ES) is reported as greater than 83 µM. The EC50 [3, 5] was greater than 100 µM and the EC50 [4] was greater than 100 µM.
Work on `O=C(N/N=C/c1ccc([N+](=O)[O-])o1)c1cccc2ccccc12` [Compound 22, N′-((5-nitrofuran-2-yl)methylene)-1-naphthohydrazide] yielded an EC50 [1] of 16 µM, an EC50 [2] greater than 100 µM and an IC50 (E. coli GroEL/ES) of 5.3 µM. For the same compound, the EC50 [3, 5] was 6 µM and the EC50 [4] was greater than 100 µM.
With `O=C(N/N=C/c1ccc(O)c2ncccc12)c1ccncc1` [Compound 6, N′-((8-hydroxyquinolin-5-yl)methylene)isonicotinohydrazide] the EC50 [1] was greater than 100 µM, the EC50 [2] was greater than 100 µM and the IC50 (E. coli GroEL/ES) was greater than 83 µM. It also gave an EC50 [3, 5] greater than 100 µM and an EC50 [4] greater than 100 µM.
With `O=C(N/N=C/c1ccc([N+](=O)[O-])o1)c1ccc(Cl)s1` [Compound 17, 5-chloro-N′-((5-nitrofuran-2-yl)methylene)thiophene-2-carbohydrazide] the EC50 [1] was 12 µM, the EC50 [2] was 49 µM and the “GroEL/ES inhibition in words” value (E. coli GroEL/ES) was “most potent at inhibiting GroEL/ES in the presence of NfsB”. For the same compound, the IC50 (E. coli GroEL/ES; [6]) was 3.2 µM, the EC50 [3, 5] was 3 µM and the EC50 [4] was greater than 100 µM.
Compound `CCOc1ccc(S(=O)(=O)Nc2ccc(C(=O)N/N=C/c3ccc([N+](=O)[O-])o3)cc2)cc1` [Compound 28, 4-ethoxy-N-(4-(2-((5-nitrofuran-2-yl)methylene)hydrazine-1-carbonyl)phenyl)benzenesulfonamide] has an EC50 [1] greater than 100 µM, an EC50 [2] greater than 100 µM and an IC50 (E. coli GroEL/ES) of 39 µM. The EC50 [3, 5] was greater than 100 µM and the EC50 [4] was greater than 100 µM.
Compound `O=C(N/N=C/c1ccc([N+](=O)[O-])o1)c1ccc(NS(=O)(=O)c2ccc(Br)cc2)cc1` [Compound 27, 4-bromo-N-(4-(2-((5-nitrofuran-2-yl)methylene)hydrazine-1-carbonyl)phenyl)benzenesulfonamide] has an EC50 [1] greater than 100 µM, an EC50 [2] greater than 100 µM and an IC50 (E. coli GroEL/ES) of 2 µM. It also gave an EC50 [3, 5] greater than 100 µM and an EC50 [4] greater than 100 µM.
